In patent US20240325398A1, “COMBINATION THERAPIES” (Infinity Pharmaceuticals, Inc., priority 2014, published 2024):

What was measured:
Assay in all cases: Combination study, ATPLite 72 h, dose matrix (Synergy Score, CI50)
RL = conditions: combination with Compound 1, 72 h
SU-DHL-10-epst = conditions: combination with Compound 1, 72 h
Mino = conditions: combination with Compound 1
OCI-Ly3 = system: OCI-Ly3
SU-DHL-4-epst = conditions: combination with Compound 1, 72 h
NCI-H929 = conditions: combination with Compound 1
Protocol: (§1) Cells are thawed from a liquid nitrogen preserved state. Once cells have been expanded and divide at their expected doubling times, screening begins. Cells are seeded in growth media in either black 1536-well or 384-well tissue culture treated plates. Cells are then equilibrated in assay plates via centrifugation and placed in incubators attached to the Dosing Modules at 37° C. for 24 hours before treatment. […] These Tzero (To) plates are read using ultra-sensitive luminescence on Envision plate readers (Perkin Elmer). Treated assay plates are incubated with compound for 72 hours. After 72 hours, plates are developed for endpoint analysis using ATPLite. All data points are collected via automated processes, quality controlled and analyzed using Zalicus software.
(§2) where T is treated cell count and V is untreated (vehicle) cell count (at 72 hours). I ranges from 0% (when T=V) to 100% (when T=0). […] The measure of effect in the experiment can be the inhibition of cellular response relative to the untreated level (vehicle alone). […] The inhibition ranges from 0% at the untreated level to 100% when T=0. Inhibition levels are negative for agents that actually increase levels. Other effect measures, such as an activity ratio r=T/V may be more appropriate for some assays. When activity ratios (e.g, fold increase over stimulated control) are being used, the effect can be measured using an induction 1=ln(T/V). With this definition, all effect expressions are the same as for inhibition.
(§3) Growth Inhibition (GI) is used as a measure of cell viability. […] A GI reading of 100% represents complete growth inhibition—T72 compound-treated and T0 vehicle signals are matched. […] A GI reading of 200% represents complete death of all cells in the culture well. Compounds reaching an activity plateau of GI 200% are considered cytotoxic. GI is calculated by applying the following test and equation:
(§4) Combination analysis data were collected in a 6×6 dose matrix. Synergy is calculated by comparing a combination's response to those of its single compound, against the drug-with-itself dose-additive reference model. Deviations from dose additivity may be assessed visually on an isobologram or numerically with a Combination Index (CI). […] Additive effect is CI=1.0. […] Antagonistic effect is CI>1.0.
(§5) To measure combination effects in excess of Loewe additivity, a scalar measure to characterize the strength of synergistic interaction termed the Synergy Score is devised. The Synergy Score is calculated as:
(§6) The fractional inhibition for each component agent and combination point in the matrix is calculated relative to the median of all vehicle-treated control wells. The Synergy Score equation integrates the experimentally-observed activity volume at each point in the matrix in excess of a model surface numerically derived from the activity of the component agents using the Loewe model for additivity. Additional terms in the Synergy Score equation (above) are used to normalize for various dilution factors used for individual agents and to allow for comparison of synergy scores across an entire experiment. The inclusion of positive inhibition gating or an Idata multiplier removes noise near the zero effect level, and biases results for synergistic interactions at that occur at high activity levels.
(§7) Loewe Volume (Loewe Vol) is used to assess the overall magnitude of the combination interaction in excess of the Loewe additivity model. Loewe Volume is particularly useful when distinguishing synergistic increases in a phenotypic activity (positive Loewe Volume) versus synergistic antagonisms (negative Loewe Volume). […] This model defines additivity as a non-synergistic combination interaction where the combination dose matrix surface should be indistinguishable from either drug crossed with itself.

OMP-2 = conditions: combination with Compound 1; OPM-2
GRANTA-519 = conditions: combination with Compound 1
RPMI-8226 = conditions: combination with Compound 1
KARPAS-299 = conditions: combination with Compound 1
WSU-NHL = conditions: combination with Compound 1, 72 h
Protocol: as §1, §2, §3, §4, §5, §6, §7

KARPAS-422 = conditions: combination with Compound 1, 72 h
HBL-1 = system: HBL-1
TMD8 = conditions: for CI50 growth inhibition / CI50 inhibition / Synergy Score growth inhibition / Synergy Score inhibition: TMD8
OCI-Ly7 = conditions: combination with Compound 1, 72 h
Protocol: as §1
(§8) The measure of effect in the experiment can be the inhibition of cellular response relative to the untreated level (vehicle alone). […] The inhibition ranges from 0% at the untreated level to 100% when T=0. Inhibition levels are negative for agents that actually increase levels.
as §3, §4, §5, §6
(§9) Loewe Volume (Loewe Vol) is used to assess the overall magnitude of the combination interaction in excess of the Loewe additivity model. Loewe Volume is particularly useful when distinguishing synergistic increases in a phenotypic activity (positive Loewe Volume) versus synergistic antagonisms (negative Loewe Volume). […] This model defines additivity as a non-synergistic combination interaction where the combination dose matrix surface should be indistinguishable from either drug crossed with itself. The calculation for Loewe additivity is:

HH = assay type: cell-based; conditions: combination with Compound 1
Protocol: The method is described as follows.
Additive effect is CI=1.0. […] Antagonistic effect is CI>1.0.
The Synergy Score is calculated as: […]

U-2932 = system: U-2932
Farage = conditions: combination with Compound 1
Jeko-1 = conditions: combination with Compound 1
DOHH-2 = conditions: combination with Compound 1, 72 h
Protocol: as §1, §8, §3, §4, §5, §6, §9

[1] = combination with Compound 1, OCI-Ly3, 72 h
[2] = combination with Compound 1, 72 h
[3] = combination with CAL-101, OCT-Ly3, Example 2
[4] = combination with Cmpd 1, OCT-Ly3, Example 2
[5] = combination with CAL-101, Example 2
[6] = combination with Cmpd 1, Example 2

O=C(Nc1ccc2[nH]nc(-c3ccncc3)c2c1)[C@@H]1CCN(CC(=O)N2CCN(c3ccc(-c4ncccn4)cc3)CC2)C1 [SCH772984, (R)-1-(2-oxo-2-(4-(4-(pyrimidin-2-yl)phenyl)piperazin-1-yl)ethyl)-N-(3-(pyridin-4-yl)-1H-indazol-5-yl)pyrrolidine-3-carboxamide]
Synergy Score growth inhibition (RL): A1 (A1=0.0001 to <1) | Synergy Score inhibition (RL): A1 (A1=0.0001 to <1) | CI50 growth inhibition (SU-DHL-10-epst): T (T=0.5 to <0.7) | CI50 inhibition (SU-DHL-10-epst): W (W=≥1) | Synergy Score growth inhibition (SU-DHL-10-epst): A2 (A2=1 to <3) | Synergy Score inhibition (SU-DHL-10-epst): A2 (A2=1 to <3) | CI50 growth inhibition (Mino): W (W=≥1) | Synergy Score growth inhibition (Mino): A1 (A1=0.0001 to <1) | Synergy Score inhibition (Mino): A1 (A1=0.0001 to <1) | CI50 growth inhibition (OCI-Ly3; [1]): W (W=≥1) | Synergy Score growth inhibition (OCI-Ly3; [1]): A1 (A1=0.0001 to <1) | Synergy Score inhibition (OCI-Ly3; [1]): A1 (A1=0.0001 to <1) | CI50 growth inhibition (SU-DHL-4-epst): W (W=≥1) | Synergy Score growth inhibition (SU-DHL-4-epst): A1 (A1=0.0001 to <1) | Synergy Score inhibition (SU-DHL-4-epst): A1 (A1=0.0001 to <1) | CI50 growth inhibition (NCI-H929): W (W=≥1) | CI50 inhibition (NCI-H929): W (W=≥1) | Synergy Score growth inhibition (NCI-H929): A1 (A1=0.0001 to <1) | Synergy Score inhibition (NCI-H929): A1 (A1=0.0001 to <1) | Synergy Score growth inhibition (OMP-2): A1 (A1=0.0001 to <1) | Synergy Score inhibition (OMP-2): A1 (A1=0.0001 to <1) | Synergy Score growth inhibition (GRANTA-519): A1 (A1=0.0001 to <1) | Synergy Score inhibition (GRANTA-519): A1 (A1=0.0001 to <1) | Synergy Score growth inhibition (RPMI-8226): A1 (A1=0.0001 to <1) | Synergy Score inhibition (RPMI-8226): A1 (A1=0.0001 to <1) | Synergy Score growth inhibition (KARPAS-299): A1 (A1=0.0001 to <1) | Synergy Score inhibition (KARPAS-299): A1 (A1=0.0001 to <1) | CI50 growth inhibition (WSU-NHL): U (U=0.7 to <1) | CI50 inhibition (WSU-NHL): U (U=0.7 to <1) | Synergy Score growth inhibition (WSU-NHL): A1 (A1=0.0001 to <1) | Synergy Score inhibition (WSU-NHL): A1 (A1=0.0001 to <1) | CI50 growth inhibition (KARPAS-422): T (T=0.5 to <0.7) | CI50 inhibition (KARPAS-422): W (W=≥1) | Synergy Score growth inhibition (KARPAS-422): A1 (A1=0.0001 to <1) | Synergy Score inhibition (KARPAS-422): A1 (A1=0.0001 to <1) | CI50 growth inhibition (HBL-1; [2]): T (T=0.5 to <0.7) | Synergy Score growth inhibition (HBL-1; [2]): A1 (A1=0.0001 to <1) | Synergy Score inhibition (HBL-1; [2]): A1 (A1=0.0001 to <1) | CI50 growth inhibition (TMD8; [2]): T (T=0.5 to <0.7) | CI50 inhibition (TMD8; [2]): U (U=0.7 to <1) | Synergy Score growth inhibition (TMD8; [2]): A1 (A1=0.0001 to <1) | Synergy Score inhibition (TMD8; [2]): A1 (A1=0.0001 to <1) | Synergy Score growth inhibition (OCI-Ly7): A1 (A1=0.0001 to <1) | Synergy Score inhibition (OCI-Ly7): A1 (A1=0.0001 to <1) | CI50 growth inhibition (HH): T (T=0.5 to <0.7) | CI50 inhibition (HH): S (S=0.01 to <0.5) | Synergy Score growth inhibition (HH): A1 (A1=0.0001 to <1) | Synergy Score inhibition (HH): A1 (A1=0.0001 to <1) | CI50 growth inhibition (U-2932; [2]): W (W=≥1) | Synergy Score growth inhibition (U-2932; [2]): A1 (A1=0.0001 to <1) | Synergy Score inhibition (U-2932; [2]): A1 (A1=0.0001 to <1) | CI50 growth inhibition (Farage; Farage, 72 h): T (T=0.5 to <0.7) | CI50 inhibition (Farage; Farage, 72 h): W (W=≥1) | Synergy Score growth inhibition (Farage; Farage, 72 h): A1 (A1=0.0001 to <1) | Synergy Score inhibition (Farage; Farage, 72 h): A1 (A1=0.0001 to <1) | CI50 growth inhibition (Jeko-1): W (W=≥1) | Synergy Score growth inhibition (Jeko-1): A1 (A1=0.0001 to <1) | Synergy Score inhibition (Jeko-1): A1 (A1=0.0001 to <1) | CI50 growth inhibition (DOHH-2): W (W=≥1) | CI50 inhibition (DOHH-2): W (W=≥1) | Synergy Score growth inhibition (DOHH-2): A1 (A1=0.0001 to <1) | Synergy Score inhibition (DOHH-2): A1 (A1=0.0001 to <1)

COc1ccc(-c2ccc3c(N4CCOC[C@@H]4C)nc(N4CCOC[C@@H]4C)nc3n2)cc1CO [AZD8055, (5-{2,4-bis[(3S)-3-methylmorpholin-4-yl]pyrido[2,3-d]pyrimidin-7-yl}-2-methoxyphenyl)methanol]
effect of the combination (isobologram) (TMD8; combination with Compound 1, TMD8 DLBCL cell line, FIG. 1-3): synergistic effect | effect of the combination (isobologram) (Farage; Farage DLBCL cell line, FIG. 4-5): synergistic effect

C=CC(=O)N1CCC[C@@H](n2nc(-c3ccc(Oc4ccccc4)cc3)c3c(N)ncnc32)C1 [PCI-32765]
Synergy Score growth inhibition (OCI-Ly3; [3]): A1 (A1=0.0001 to <1) | Synergy Score inhibition (OCI-Ly3; [3]): A1 (A1=0.0001 to <1) | CI50 growth inhibition (OCI-Ly3; [4]): S (S=0.01 to <0.5) | Synergy Score growth inhibition (OCI-Ly3; [4]): A1 (A1=0.0001 to <1) | Synergy Score inhibition (OCI-Ly3; [4]): A1 (A1=0.0001 to <1) | CI50 growth inhibition (HBL-1; [5]): S (S=0.01 to <0.5) | Synergy Score growth inhibition (HBL-1; [5]): A2 (A2=1 to <3) | Synergy Score inhibition (HBL-1; [5]): A1 (A1=0.0001 to <1) | CI50 growth inhibition (HBL-1; [6]): S (S=0.01 to <0.5) | Synergy Score growth inhibition (HBL-1; [6]): A2 (A2=1 to <3) | Synergy Score inhibition (HBL-1; [6]): A1 (A1=0.0001 to <1) | CI50 growth inhibition (TMD8; [5]): S (S=0.01 to <0.5) | CI50 inhibition (TMD8; [5]): S (S=0.01 to <0.5) | Synergy Score growth inhibition (TMD8; [5]): A3 (A3=>3) | Synergy Score inhibition (TMD8; [5]): A3 (A3=>3) | CI50 growth inhibition (TMD8; [6]): U (U=0.7 to <1) | CI50 inhibition (TMD8; [6]): T (T=0.5 to <0.7) | Synergy Score growth inhibition (TMD8; [6]): A3 (A3=>3) | Synergy Score inhibition (TMD8; [6]): A3 (A3=>3) | CI50 growth inhibition (U-2932; [5]): T (T=0.5 to <0.7) | CI50 inhibition (U-2932; [5]): U (U=0.7 to <1) | Synergy Score growth inhibition (U-2932; [5]): A2 (A2=1 to <3) | Synergy Score inhibition (U-2932; [5]): A2 (A2=1 to <3) | CI50 growth inhibition (U-2932; [6]): U (U=0.7 to <1) | CI50 inhibition (U-2932; [6]): U (U=0.7 to <1) | Synergy Score growth inhibition (U-2932; [6]): A2 (A2=1 to <3) | Synergy Score inhibition (U-2932; [6]): A2 (A2=1 to <3)

CC(=O)c1c(C)c2cnc(Nc3ccc(N4CCNCC4)cn3)nc2n(C2CCCC2)c1=O [PD-0332991]
CI50 growth inhibition (OCI-Ly3; [3]): S (S=0.01 to <0.5) | CI50 inhibition (OCI-Ly3; [3]): S (S=0.01 to <0.5) | Synergy Score growth inhibition (OCI-Ly3; [3]): A3 (A3=>3) | Synergy Score inhibition (OCI-Ly3; [3]): A2 (A2=1 to <3) | CI50 growth inhibition (OCI-Ly3; [4]): T (T=0.5 to <0.7) | CI50 inhibition (OCI-Ly3; [4]): U (U=0.7 to <1) | Synergy Score growth inhibition (OCI-Ly3; [4]): A2 (A2=1 to <3) | Synergy Score inhibition (OCI-Ly3; [4]): A1 (A1=0.0001 to <1) | Synergy Score growth inhibition (HBL-1; [5]): A1 (A1=0.0001 to <1) | Synergy Score inhibition (HBL-1; [5]): A1 (A1=0.0001 to <1) | Synergy Score growth inhibition (HBL-1; [6]): A1 (A1=0.0001 to <1) | Synergy Score inhibition (HBL-1; [6]): A1 (A1=0.0001 to <1) | CI50 growth inhibition (TMD8; [5]): S (S=0.01 to <0.5) | CI50 inhibition (TMD8; [5]): S (S=0.01 to <0.5) | Synergy Score growth inhibition (TMD8; [5]): A3 (A3=>3) | Synergy Score inhibition (TMD8; [5]): A2 (A2=1 to <3) | CI50 growth inhibition (TMD8; [6]): S (S=0.01 to <0.5) | CI50 inhibition (TMD8; [6]): S (S=0.01 to <0.5) | Synergy Score growth inhibition (TMD8; [6]): A3 (A3=>3) | Synergy Score inhibition (TMD8; [6]): A2 (A2=1 to <3) | Synergy Score growth inhibition (U-2932; [5]): A1 (A1=0.0001 to <1) | Synergy Score inhibition (U-2932; [5]): A1 (A1=0.0001 to <1) | Synergy Score growth inhibition (U-2932; [6]): A1 (A1=0.0001 to <1) | Synergy Score inhibition (U-2932; [6]): A1 (A1=0.0001 to <1)
